Measured values reported in ChEMBL document CHEMBL1138817, “Synthesis and cytotoxic activity of 3-O-acyl/3-hydrazine /2-bromo/20,29-dibromo betulinic acid derivatives” (2004).
Converted amounts (≈) assume the structure as drawn.

Columns and labels:
Assay type in all cases: functional
Jurkat = experiment: Cytotoxic activity against human JurkatE6.1 cell line was measured after 72 h using MTT assay; settings: for EC50: Homo sapiens, Jurkat, 72 h, read-out: ED50 (the source's name)
A549 = experiment: Cytotoxic activity against human A549 cell line was measured after 72 hr using MTT assay; settings: A549, 72 h, read-out: ED50 (the source's name)
L132 = experiment: Cytotoxic activity against human L132 cell line was measured after 72 hr using MTT assay; settings: L132, 72 h, read-out: ED50 (the source's name)
PA-1 = experiment: Cytotoxic activity against human PA-1 cell line was measured after 72 hr using MTT assay; settings: for EC50: Homo sapiens, PA-1, 72 h, read-out: ED50 (the source's name)
DU-145 = experiment: Cytotoxic activity against human DU145 cell line was measured after 72 hr using MTT assay; settings: for EC50: Homo sapiens, DU-145, 72 h, read-out: ED50 (the source's name)
MOLT-4 = experiment: Cytotoxic activity against human MOLT-4 cell line was measured after 72 hr using MTT assay; settings: for EC50: Homo sapiens, MOLT-4, 72 h, read-out: ED50 (the source's name)
CCRF-CEM = experiment: Cytotoxic activity against human CEM.CM3 cell line was measured after 72 hr using MTT assay; settings: for EC50: Homo sapiens, CCRF-CEM, 72 h, read-out: ED50 (the source's name)
BRISTOL8 = experiment: Cytotoxic activity against human BRISTOL8 cell line was measured after 72 hr using MTT assay; settings: for EC50: Homo sapiens, BRISTOL8, 72 h, read-out: ED50 (the source's name)
U-937 = experiment: Cytotoxic activity against human U937 cell line was measured after 72 hr using MTT assay; settings: for EC50: Homo sapiens, U-937, 72 h, read-out: ED50 (the source's name)

Row | Structure (SMILES) | EC50 (Jurkat) | EC50 (A549) | EC50 (L132) | EC50 (PA-1) | EC50 (DU-145) | EC50 (MOLT-4) | EC50 (CCRF-CEM) | EC50 (BRISTOL8) | EC50 (U-937) | ED50 (Jurkat) | ED50 (PA-1) | ED50 (DU-145) | ED50 (MOLT-4) | ED50 (CCRF-CEM) | ED50 (BRISTOL8) | ED50 (U-937)
1 | C=C(C)[C@@H]1CC[C@]2(C(=O)CC(=O)OC)CC[C@]3(C)C(CCC4[C@@]5(C)CC[C@H](O)C(C)(C)C5CC[C@]43C)C12 (stereo partly drawn) | 7.4 µg/mL (≈ 14.4 µM) | > 10 µg/mL | > 10 µg/mL | 7.1 µg/mL (≈ 13.8 µM) | 2.9 µg/mL (≈ 5.66 µM) | 3.9 µg/mL (≈ 7.61 µM) | 6.4 µg/mL (≈ 12.5 µM) | 4.5 µg/mL (≈ 8.78 µM) | > 10 µg/mL | – | – | – | – | – | – | –
2 | COC(=O)COC(=O)[C@]12CC[C@@H](C(C)C)C1C1CCC3[C@@]4(C)CC[C@H](O)C(C)(C)C4CC[C@@]3(C)[C@]1(C)CC2 (stereo partly drawn) | 5.5 µg/mL (≈ 10.4 µM) | > 10 µg/mL | > 10 µg/mL | 0.5 µg/mL (≈ 0.942 µM) | > 10 µg/mL | 2.8 µg/mL (≈ 5.28 µM) | 2.5 µg/mL (≈ 4.71 µM) | 3.4 µg/mL (≈ 6.41 µM) | > 10 µg/mL | – | – | – | – | – | – | –
3 | C=C(C)[C@@H]1CC[C@]2(C(=O)OCC(=O)OC)CC[C@]3(C)C(CCC4[C@@]5(C)CC[C@H](O)C(C)(C)C5CC[C@]43C)C12 (stereo in doubt; 4) | – | – | – | – | – | – | – | – | – | 3.1 µg/mL (≈ 5.86 µM) | 3.1 µg/mL (≈ 5.86 µM) | 1.9 µg/mL (≈ 3.59 µM) | 2.9 µg/mL (≈ 5.48 µM) | 5.9 µg/mL (≈ 11.2 µM) | 7.4 µg/mL (≈ 14 µM) | 5.4 µg/mL (≈ 10.2 µM)
4 | C=C(C)[C@@H]1CC[C@]2(C(=O)O)CC[C@]3(C)C(CCC4[C@@]5(C)CC[C@H](OC(=O)C(C)(C)C)C(C)(C)C5CC[C@]43C)C12 (stereo partly drawn) | > 10 µg/mL | > 10 µg/mL | > 10 µg/mL | 0.7 µg/mL (≈ 1.29 µM) | 1 µg/mL (≈ 1.85 µM) | 2.4 µg/mL (≈ 4.44 µM) | > 10 µg/mL | > 10 µg/mL | > 10 µg/mL | – | – | – | – | – | – | –
5 | CC(=O)O[C@H]1C(Br)C[C@@]2(C)C(CC[C@]3(C)C2CCC2C4[C@H](C(C)(Br)CBr)CC[C@]4(C(=O)O)CC[C@]23C)C1(C)C (stereo partly drawn) | 6.9 µg/mL (≈ 9.36 µM) | > 10 µg/mL | > 10 µg/mL | 2.4 µg/mL (≈ 3.25 µM) | 2.5 µg/mL (≈ 3.39 µM) | 2.8 µg/mL (≈ 3.8 µM) | 2.7 µg/mL (≈ 3.66 µM) | 1.4 µg/mL (≈ 1.9 µM) | 0.3 µg/mL (≈ 0.407 µM) | – | – | – | – | – | – | –
6 | C=C(C)[C@@H]1CC[C@]2(C(=O)OCC(=O)O)CC[C@]3(C)C(CCC4[C@@]5(C)CC[C@H](O)C(C)(C)C5CC[C@]43C)C12 (stereo partly drawn) | > 10 µg/mL | > 10 µg/mL | > 10 µg/mL | 1.3 µg/mL (≈ 2.53 µM) | > 10 µg/mL | 3.1 µg/mL (≈ 6.02 µM) | > 10 µg/mL | – | > 10 µg/mL | – | – | – | – | – | – | –
7 | C=C(C)[C@@H]1CC[C@]2(C(=O)OCC(=O)OC)CC[C@]3(C)C(CCC4[C@@]5(C)CC[C@H](O)C(C)(C)C5CC[C@]43C)C12 (stereo in doubt; 3) | – | > 10 µg/mL | > 10 µg/mL | 5.9 µg/mL (≈ 11.2 µM) | – | 4 µg/mL (≈ 7.56 µM) | 3.2 µg/mL (≈ 6.05 µM) | 5.3 µg/mL (≈ 10 µM) | > 10 µg/mL | 1.4 µg/mL (≈ 2.65 µM) | – | >10 µg/mL | – | – | – | –
8 | COC(=O)COC(=O)[C@]12CC[C@@H](C(C)(Br)CBr)C1C1CCC3[C@@]4(C)CC(Br)C(=O)C(C)(C)C4CC[C@@]3(C)[C@]1(C)CC2 (stereo partly drawn) | 1.1 µg/mL (≈ 1.44 µM) | > 10 µg/mL | > 10 µg/mL | 2.5 µg/mL (≈ 3.27 µM) | 4.5 µg/mL (≈ 5.88 µM) | 1.3 µg/mL (≈ 1.7 µM) | 1.2 µg/mL (≈ 1.57 µM) | 1.9 µg/mL (≈ 2.48 µM) | 0.7 µg/mL (≈ 0.914 µM) | – | – | – | – | – | – | –
9 | C=C(C)[C@@H]1CC[C@]2(C(=O)O)CC[C@]3(C)C(CCC4[C@@]5(C)CC/C(=N\OS(=O)(=O)c6ccc(C)cc6)C(C)(C)C5CC[C@]43C)C12 (stereo partly drawn) | 4.9 µg/mL (≈ 7.85 µM) | > 10 µg/mL | > 10 µg/mL | 1.8 µg/mL (≈ 2.89 µM) | 2.8 µg/mL (≈ 4.49 µM) | 2.7 µg/mL (≈ 4.33 µM) | 1.5 µg/mL (≈ 2.4 µM) | 3.3 µg/mL (≈ 5.29 µM) | 4.8 µg/mL (≈ 7.69 µM) | – | – | – | – | – | – | –
